Read-outs that look alike come from different tables or passages of the source.

Data on 4 molecules can be found in patent publication US20230406912A1, “HUMANISED ANTIBODIES AGAINST PATHOGENIC FUNGI” (priority 2020, published 2023).

The subject of experiment [1] is C. auris. Conditions: different C. auris strains, literature; cited from earlier work.
The test system of experiment [2] is C. auris. The experiment in a line: EUCAST antifungal MIC assay, drug alone and combined with hmAb 2G8. It is filed as cell-based. Conditions: drug alone. As to the method:
To evaluate the susceptibility of C. auris to caspofungin, amphotericin B and their combination with hmAb 2G8, we followed the EUCAST antifungal MIC method (EUCAST E.DEF. 7.3). Antifungal drugs were purchased from Sigma-Aldrich.
The caspofungin and amphotericin B range concentrations analysed were reported in EUCAST document. Those concentrations were tested alone and in combination with 0.25, 2.5, 25 and 250 μg/ml of humanised antibody.
The plates microdilution and the yeast inoculum were prepared as reported in EUCAST document. The wells with 100 μl of 2X final antifungal drugs concentration in RPMI 2% G medium were inoculated with 100 μl (1-5×10^5 CFU/ml) of yeast suspension of C. auris. The monoclonal antibody was added to the samples of yeast suspension to test the combination drug-antibody. The plates were incubated at 37° C. for 24 and 48 hours and read after incubation at 405 nm. The assays were performed in triplicate.
As reported in EUCAST, echinocandins' MIC50 is the lowest drug concentration giving inhibition of≥50% of that of the drug-free control (dotted line). For amphotericin B, MIC50 is the same as for echinocandins while MIC90 is considered as the lowest concentration giving a growth inhibition of≥90% of that of the drug-free control (dotted bold line). […] At 48 hours (D), amphotericin B alone has its MIC50 and 90 at 1 μg/ml.

Experiment [3] deals with C. auris. The experiment in a line: Time-kill curve, drug alone and combined with hmAb 2G8. It is filed as cell-based. From the text:
To support and deepen the data coming from MIC assays, a time-kill curve was elaborated to evaluate how the hmAb 2G8 combined with caspofungin or amphotericin B could improve their basal activity on C. auris.

Experiment [4] in a line: ELISA assay on laminarin-coated plates. Conditions: ELISA of supernatants of humanised mAbs. It is filed as binding. As for the experimental part: The activity of the purified antibody was then tested by ELISA assay. 96-well plates were coated with 50 μg/ml Laminarin (Sigma-Aldrich, L9634) in 0.05 M carbonate buffer pH 9.6 overnight at 4° C. Nonspecific interactions were blocked with 100 μL/well blocking solution, 3% (w/v) BSA in PBS-Tween 20 (8 g/L NaCl, 0.2 g/L KH2PO4, 2.9 g/L Na2HPO4·12 H2O, 0.2 g/L KCI, 0.05% (v/v) Tween 20, pH 7.4) at 37° C. for 1 h. The plates were then incubated with decreasing concentrations of hmAb 2G8_first approach (comparative purpose) (from 3.12 μg/ml to 0.003 μg/ml, each concentration was tested in triplicate) in blocking solution for 2 h at 37° C. At the same temperature and for the same time, 100 μL Goat anti-human-HRP diluted 1:1000 in blocking solution was poured in each well. After every single passage the plates were washed 5 times with PBS-Tween 20. To reveal the binding, 100 μl of 5 mg-ABTS tablet (Roche Diagnostics) dissolved in 12 ml of sodium citrate (0.05 M, pH 3) and supplemented with 1:1000 dilution hydrogen peroxide (Carlo Erba) was added and after 15, 30, 45 and 60 min the absorbance at 405 nm was measured. For the whole measuring time the plates were left in the dark. IC50 analysis of ELISA test was performed with Prism. The TEST was performed in triplicate.
The surnatants collected from the obtained humanised mAb were tested in ELISA test.
Four supernatants from hmAb according to the invention (H5/K3; H5/K1; H5/K7; H5/K5) were purified to confirm the data. 8 scalar dilutions, starting from 5 μg/ml, were tested.
The purified humanised mAb 2G8 H5/K1 was then tested in an ELISA assay using laminarin as a target.
Background: In an ELISA, binding on a coated surface is turned into a signal by an enzyme label.

For the molecule `C[C@@H]1[C@H](O)[C@@H](C)/C=C/C=C/C=C/C=C/C=C/C=C/C=C/[C@H](O[C@@H]2O[C@H](C)[C@@H](O)[C@H](N)[C@@H]2O)C[C@@H]2O[C@](O)(C[C@@H](O)C[C@@H](O)[C@H](O)CC[C@@H](O)C[C@@H](O)CC(=O)O[C@H]1C)C[C@H](O)[C@H]2C(=O)O` [amphotericin B], the MIC (usually the smallest concentration in the dilution series that meets the test's criterion for growth inhibition) in the experiment with C. auris [1] was not below 2 µg/mL. In addition, the figures for the MIC50 in the experiment on C. auris [2] (24 hours) and with C. auris [2] (48 hours) were 0.5 µg/mL and 1 µg/mL, respectively. Also, the MIC90 (as a rule, an inhibitory concentration at the 90% level, which refers to growth in some studies and to a panel of isolates in others) in the experiment on C. auris [2] (24 hours) is 0.5 µg/mL; in the experiment with C. auris [2] (48 hours), 1 µg/mL. For the same molecule, the “log growth decrease (time-kill curve)” value with C. auris [3] (AMB 0.03125 μg/ml, 0 h) is reported as 0.01 Log; in the experiment on C. auris [3] (AMB 0.03125 μg/ml, 2 h), 0.05 Log; in the experiment with C. auris [3] (AMB 0.03125 μg/ml, 4 h) it was −0.19 Log; with C. auris [3] (AMB 0.03125 μg/ml, 6 h), −0.62 Log; in the experiment with C. auris [3] (AMB 0.03125 μg/ml, 8 h) it was −1.04 Log; with C. auris [3] (AMB 0.03125 μg/ml, 24 h), −2.65 Log. Besides, the “log growth decrease (time-kill curve)” value with C. auris [3] (AMB 0.03125 μg/ml, 48 h) is −2.85 Log; in the experiment with C. auris [3] (AMB 0.0625 μg/ml, 0 h), 0.00 Log; in the experiment on C. auris [3] (AMB 0.0625 μg/ml, 2 h), 0.07 Log; with C. auris [3] (AMB 0.0625 μg/ml, 4 h) it was −0.14 Log; in the experiment with C. auris [3] (AMB 0.0625 μg/ml, 6 h), −0.59 Log; in the experiment with C. auris [3] (AMB 0.0625 μg/ml, 8 h) it was −0.97 Log. The “log growth decrease (time-kill curve)” value is −2.59 Log in the experiment on C. auris [3] (AMB 0.0625 μg/ml, 24 h); −2.57 Log with C. auris [3] (AMB 0.0625 μg/ml, 48 h); 0.01 Log in the experiment on C. auris [3] (AMB 0.125 μg/ml, 0 h); 0.11 Log in the experiment with C. auris [3] (AMB 0.125 μg/ml, 2 h); −0.07 Log in the experiment with C. auris [3] (AMB 0.125 μg/ml, 4 h); −0.42 Log in the experiment with C. auris [3] (AMB 0.125 μg/ml, 6 h). Also, the “log growth decrease (time-kill curve)” value in the experiment on C. auris [3] (AMB 0.125 μg/ml, 8 h) is recorded as −0.80 Log; in the experiment with C. auris [3] (AMB 0.125 μg/ml, 24 h) it was −2.28 Log; in the experiment with C. auris [3] (AMB 0.125 μg/ml, 48 h), −2.44 Log; in the experiment with C. auris [3] (AMB 0.25 μg/ml, 0 h) it was 0.07 Log; with C. auris [3] (AMB 0.25 μg/ml, 2 h), 0.10 Log; with C. auris [3] (AMB 0.25 μg/ml, 4 h), 0.02 Log. Further, the “log growth decrease (time-kill curve)” value is on record as −0.02 Log in the experiment with C. auris [3] (AMB 0.25 μg/ml, 6 h); 0.02 Log in the experiment with C. auris [3] (AMB 0.25 μg/ml, 8 h); 0.19 Log with C. auris [3] (AMB 0.25 μg/ml, 24 h); −2.13 Log with C. auris [3] (AMB 0.25 μg/ml, 48 h); 0.05 Log in the experiment with C. auris [3] (AMB 0.5 μg/ml, 0 h); 0.21 Log in the experiment with C. auris [3] (AMB 0.5 μg/ml, 2 h). The “log growth decrease (time-kill curve)” value is reported as 0.41 Log in the experiment on C. auris [3] (AMB 0.5 μg/ml, 4 h); 0.86 Log with C. auris [3] (AMB 0.5 μg/ml, 6 h); 1.95 Log in the experiment on C. auris [3] (AMB 0.5 μg/ml, 8 h); not below 3 Log in the experiment with C. auris [3] (AMB 0.5 μg/ml, 24 h); not below 3 Log in the experiment with C. auris [3] (AMB 0.5 μg/ml, 48 h); 0.05 Log with C. auris [3] (AMB 1 μg/ml, 0 h). Moreover, the “log growth decrease (time-kill curve)” value in the experiment with C. auris [3] (AMB 1 μg/ml, 2 h) was 1.77 Log; with C. auris [3] (AMB 1 μg/ml, 4 h), not below 3 Log; in the experiment with C. auris [3] (AMB 1 μg/ml, 6 h), not below 3 Log; with C. auris [3] (AMB 1 μg/ml, 8 h), not below 3 Log; with C. auris [3] (AMB 1 μg/ml, 24 h), not below 3 Log; in the experiment on C. auris [3] (AMB 1 μg/ml, 48 h) it was not below 3 Log. For the same molecule, the “log growth decrease (time-kill curve)” value with C. auris [3] (AMB 2 μg/ml, 0 h) is 0.05 Log; with C. auris [3] (AMB 2 μg/ml, 2 h), not below 3 Log; in the experiment on C. auris [3] (AMB 2 μg/ml, 4 h), not below 3 Log; in the experiment on C. auris [3] (AMB 2 μg/ml, 6 h) it was not below 3 Log; in the experiment on C. auris [3] (AMB 2 μg/ml, 8 h) it was not below 3 Log; in the experiment on C. auris [3] (AMB 2 μg/ml, 24 h), not below 3 Log. The “log growth decrease (time-kill curve)” value is reported as not below 3 Log in the experiment on C. auris [3] (AMB 2 μg/ml, 48 h); 0.06 Log with C. auris [3] (AMB 4 μg/ml, 0 h); not below 3 Log in the experiment with C. auris [3] (AMB 4 μg/ml, 2 h); not below 3 Log in the experiment on C. auris [3] (AMB 4 μg/ml, 4 h); not below 3 Log in the experiment with C. auris [3] (AMB 4 μg/ml, 6 h); not below 3 Log in the experiment on C. auris [3] (AMB 4 μg/ml, 8 h). The “log growth decrease (time-kill curve)” value is not below 3 Log in the experiment on C. auris [3] (AMB 4 μg/ml, 24 h) and not below 3 Log in the experiment on C. auris [3] (AMB 4 μg/ml, 48 h). The “time at which fungicidal activity is obtained” value in the experiment with C. auris [3] (time-kill curve, as efficiency starts decreasing) was 24 h.

For the molecule `CC[C@H](C)C[C@H](C)CCCCCCCCC(=O)N[C@H]1C[C@@H](O)[C@@H](NCCN)NC(=O)[C@@H]2[C@@H](O)CCN2C(=O)[C@H]([C@H](O)CCN)NC(=O)[C@H]([C@H](O)[C@@H](O)c2ccc(O)cc2)NC(=O)[C@@H]2C[C@@H](O)CN2C(=O)[C@H]([C@@H](C)O)NC1=O` [caspofungin], the MIC50 (as a rule, the lowest concentration that inhibits either 50% of growth or 50% of the strains tested, depending on the study) in the experiment with C. auris [2] (Candidozyma auris, 48 hours, read-out: MIC50) is 0.25 µg/mL. In addition, the “fungistatic effect, log (time-kill curve)” value in the experiment on C. auris [3] (CAS 0.125 μg/ml, 24 h) is reported as −1.88; in the experiment on C. auris [3] (CAS 0.125 μg/ml, 48 h) it was −2.10; in the experiment with C. auris [3] (CAS 0.25 μg/ml, 24 h, combination with 250 μg/ml hmAb 2G8 H5K1), −1.11; in the experiment with C. auris [3] (CAS 0.25 μg/ml, 48 h, combination with 250 μg/ml hmAb 2G8 H5K1) it was −1.71.

As to `C[C@@H](c1ncncc1F)[C@](O)(Cn1cncn1)c1ccc(F)cc1F` [voriconazole], the MIC entry in the experiment on C. auris [1] is reported as “about 16 mg/L”.

B1: H5 K7: humanised mAb combining heavy chain H5 (SEQ ID NO: 22) and light chain K7 (SEQ ID NO: 25) (antibody, V domains shown)
VH: QVQLQQSGAELKKPGASVKISCKASGYTLSSYWLEWVRQRPGQGLEWIGEILPGSGSTNYNEKFKGRATFTADTSTNTAYMELSSLTSEDSAVYYCAREGWYFDVWGQGTTVTVSS
VL: DIVMTQSPLSLPVTLGQPASISCKSSQSLLYSNGNTHLNWYLQRPGQSPKRLIYLVSKLDSGVPDRFSGSGSGTDFTLKISRVEAEDVGVYYCVQGTHFPYTFGGGTKLEIK
modifications: VH-H5; VL-K7
Turning to B1, in experiment [4], the “Abs 405 nm” value is listed as 0.82.
